The record followed here is patent publication US8951752B2, “N-demethyase genes and uses thereof” (priority 2011, dated 2015).

For test [1], the target named is T1, NdmA-His6 (Pseudomonas putida, UniProt H9N289).
T1 construct: made in house; host or cells: E. coli BL21(DE3)
T1 sequence (H9N289 1-351): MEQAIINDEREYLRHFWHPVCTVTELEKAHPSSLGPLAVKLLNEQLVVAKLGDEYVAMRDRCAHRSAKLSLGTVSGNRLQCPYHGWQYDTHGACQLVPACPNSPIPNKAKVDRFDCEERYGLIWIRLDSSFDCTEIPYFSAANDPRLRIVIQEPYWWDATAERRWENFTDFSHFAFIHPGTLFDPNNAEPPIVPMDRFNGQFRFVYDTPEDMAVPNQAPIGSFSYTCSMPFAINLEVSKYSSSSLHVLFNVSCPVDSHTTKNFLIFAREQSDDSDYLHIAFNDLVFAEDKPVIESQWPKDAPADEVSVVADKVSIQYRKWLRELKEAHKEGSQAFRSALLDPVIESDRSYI
The test is described as follows: Methylxanthine N-demethylase assay and kinetics, NdmA-His6 with His6-NdmD. Type of test: biochemical, Pseudomonas putida CBB5. On the procedure:
(§1) Methylxanthine N-demethylase activity assay contained, in 1-ml total volume, 0.5 mM methylxanthine, 1 mM NADH, 50 μM Fe(NH4)2(SO4)2, and an appropriate amount of NdmA-His6 or NdmB-His6 (7.4 μg-2.5 mg protein depending on substrate specificity) in 50 mM KPi buffer (pH 7.5). Approximately 4 U of partially purified reductase, prepared as described previously (Summers et al., 2011) or 59 U of purified His6-NdmD was added to reaction mixture. Catalase from bovine liver (4,000 U) was also added to reactions containing His6-NdmD. The reaction mixture was incubated at 30° C. with 300 rpm shaking on an incubating microplate shaker (VWR, Radnor, Pa.). Periodically, a small aliquot was sampled from the reaction mixture and mixed with equal volume of acetonitrile for quantifying concentrations of methylxanthines and N-demethylated products by HPLC. One unit of N-demethylase activity was defined as the consumption of one […] methylxanthine per minute.
(§2) Apparent kinetic parameters of NdmA-His6 and NdmB-His6 were determined by measuring the initial rate of disappearance (vo) of methylxanthines in 50 mM KPi buffer (pH 7.5) at 30° C. The initial substrate concentrations (ESI) used in these experiments were from 25 to 500 μM. Substrates were incubated with His6-NdmD plus either NdmA-His6 or NdmB-His6 under standard conditions for 15 minutes. At 1, 5, 10, and 15 minutes, samples were removed from the reaction mixtures to quantitate substrate concentrations by HPLC. Plots of substrate concentrations against time were used to determine the initial rates of disappearance of substrates which were linear over 15 minutes. The apparent kinetic parameters were determined from Michaelis-Menten plots of vo against [S] fitted with the equation

Test [2] has as its target T2, NdmB-His6 (Pseudomonas putida, UniProt H9N290).
T2 construct: made in house; host or cells: E. coli BL21(DE3)
T2 sequence (H9N290 1-355): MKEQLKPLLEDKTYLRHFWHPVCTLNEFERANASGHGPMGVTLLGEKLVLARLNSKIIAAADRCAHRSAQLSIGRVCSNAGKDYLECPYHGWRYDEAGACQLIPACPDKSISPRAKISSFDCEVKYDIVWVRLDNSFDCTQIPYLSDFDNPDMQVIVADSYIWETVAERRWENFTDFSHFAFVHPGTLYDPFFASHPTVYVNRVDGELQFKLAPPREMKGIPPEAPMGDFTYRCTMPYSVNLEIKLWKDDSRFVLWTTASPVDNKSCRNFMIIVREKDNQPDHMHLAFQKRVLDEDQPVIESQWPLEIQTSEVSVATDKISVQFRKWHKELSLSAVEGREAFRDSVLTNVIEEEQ
The test is described as follows: Methylxanthine N-demethylase assay and kinetics, NdmB-His6 with His6-NdmD. It counts as biochemical, Pseudomonas putida CBB5. As to conditions: NdmB-His6. On the procedure: as §1, §2

Structures are written as SMILES.

As for `Cn1cnc2c1c(=O)[nH]c(=O)n2C` [Theobromine, 3,7-dimethylxanthine], the “N-demethylase activity” value in test [1] (NdmA) is “inactive”. In addition, the Km result in test [1] (NdmA-His6, 30° C., pH 7.5, ∞ where no activity) is listed as “∞”. Further, the Product in test [2] is 7-methylxanthine.
